The term melting point denotes the temperature of the solid-liquid transition. With `COCCOc1cc2nccc(Nc3cc(O)c(C)cc3F)c2cc1C#N.Cl`, the melting point was in the range of 300 to 302 °C.

In turn, `COc1cc2c(Nc3ccc(C)c(OC(C)=O)c3)ccnc2cc1OCc1ccccc1.Cl` gave a melting point of 230 to 232 °C.

`COc1cc2nccc(Nc3cc(O)c(Cl)cc3F)c2cc1OC.Cl`: the melting point was 312 to 318 °C.

Compound `COc1cc2c(Nc3ccc(Cl)cc3F)ccnc2cc1OCc1ccccc1.Cl` gave a melting point of 222 to 225 °C.

On to `COc1cc2c(Nc3ccc(Cl)cc3F)ccnc2cc1OCCN(C)C.Cl`, for which the melting point was more than 250 °C.

`COc1cc2nccc(Nc3cccc(O)c3)c2cc1OC.Cl` came in with a melting point of 280 to 283 °C.

With `COc1cc2nccc(Nc3cc(O)c(C)cc3F)c2cc1OC.Cl`, the melting point is more than 280 °C.

Regarding `COCCOc1cc2nccc(Nc3ccc(C)c(O)c3)c2cc1C#N.Cl`, the melting point is 275 to 278 °C.

Turning to `COc1cc2nccc(Nc3cc(O)c(C)cc3F)c2cc1C#N.Cl`, the melting point fell in the range of 278 to 281 °C.

With `COCCOc1cc2nccc(Nc3ccc(Cl)cc3F)c2cc1C#N.Cl`, the melting point was 247 to 250 °C.

As to `COc1cc2c(Oc3cc(O)c(C)cc3F)ccnc2cc1OCCCN1CCOCC1` [Example 3, 4-(2-fluoro-5-hydroxy-4-methylphenoxy)-6-methoxy-7-(3-morpholinopropoxy)quinoline], the melting point is 210 to 217 °C.

`COc1cc2nccc(Oc3cccc(O)c3)c2cc1OC` [Example 26, 6,7-dimethoxy-4-(3-hydroxyphenoxy)quinoline] came in with a melting point of 140 °C.

In the case of `COCCOc1cc2nccc(Oc3cccc(O)c3)c2cc1C#N` [Example 50, 6-cyano-4-(3-hydroxyphenoxy)-7-(2-methoxyethoxy)quinoline], the melting point lay within 159 to 163 °C.

The values are drawn from patent publication US6809097B1, “Quinoline derivatives inhibiting the effect of growth factors such as VEGF” (Zeneca Limited, priority 1996, dated 2004).
